# Assays:
# [1] = tested on: LAPC4 prostate cancer cells, which express the AKT1 E17K allele; assay: Antiproliferative effects in LAPC4 cells (CellTiter Glo, 72 h); type: cell-based; settings: Homo sapiens, LAPC4, 72 h, read-out: LAPC4 proliferation IC50: GeoMean IC50
# Procedure, shortened: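 Cells grown in IMDM with 12% FBS, seeded at 1,000 cells/well and treated with compound dilutions in DMSO for 72 h. Intracellular ATP read by luminescence. IC50 from a log(inhibitor) vs. response Hill fit.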
# AKT1 WT = target: T1, AKT1 WT (Homo sapiens, UniProt P31749); assay: Live cell target engagement by NanoBRET competitive probe displacement, AKT1 WT; type: binding; settings: transfected HEK293 cells, 2 h at 37° C., read-out: AKT1 WT IC50: GeoMean IC50
# T1 construct: expressed in transfected cells; host or cells: HEK293
# T1 sequence (P31749 whole entry): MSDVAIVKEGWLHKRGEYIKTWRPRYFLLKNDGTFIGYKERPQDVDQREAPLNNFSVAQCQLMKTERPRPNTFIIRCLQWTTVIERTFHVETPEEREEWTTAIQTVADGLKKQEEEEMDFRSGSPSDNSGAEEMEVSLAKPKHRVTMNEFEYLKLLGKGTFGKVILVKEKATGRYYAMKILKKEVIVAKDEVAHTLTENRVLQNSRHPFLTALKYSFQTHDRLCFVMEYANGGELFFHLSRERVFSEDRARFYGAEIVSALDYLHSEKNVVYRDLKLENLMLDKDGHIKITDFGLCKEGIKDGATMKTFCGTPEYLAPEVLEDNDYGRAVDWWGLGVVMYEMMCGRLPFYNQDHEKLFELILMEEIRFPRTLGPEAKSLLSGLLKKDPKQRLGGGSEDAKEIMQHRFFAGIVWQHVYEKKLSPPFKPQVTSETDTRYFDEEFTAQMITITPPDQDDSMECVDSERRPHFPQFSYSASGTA
# AKT1 E17K = target: T2, AKT1 E17K (Homo sapiens, UniProt P31749, E17K); assay: Live cell target engagement by NanoBRET competitive probe displacement, AKT1 E17K; type: binding; settings: transfected HEK293 cells, 2 h at 37° C., read-out: AKT1 E17K IC50: GeoMean IC50
# T2 construct: expressed in transfected cells; host or cells: HEK293
# T2 sequence (P31749 whole entry E17K): as the sequence (P31749 whole entry) above, with E17K counted along it
# AKT2 = target: T3, AKT2 (Homo sapiens, UniProt P31751); assay: Live cell target engagement by NanoBRET competitive probe displacement, AKT2; type: binding; settings: transfected HEK293 cells, 2 h at 37° C., read-out: AKT2 IC50: GeoMean IC50
# T3 construct: expressed in transfected cells; host or cells: HEK293
# T3 sequence (P31751 whole entry): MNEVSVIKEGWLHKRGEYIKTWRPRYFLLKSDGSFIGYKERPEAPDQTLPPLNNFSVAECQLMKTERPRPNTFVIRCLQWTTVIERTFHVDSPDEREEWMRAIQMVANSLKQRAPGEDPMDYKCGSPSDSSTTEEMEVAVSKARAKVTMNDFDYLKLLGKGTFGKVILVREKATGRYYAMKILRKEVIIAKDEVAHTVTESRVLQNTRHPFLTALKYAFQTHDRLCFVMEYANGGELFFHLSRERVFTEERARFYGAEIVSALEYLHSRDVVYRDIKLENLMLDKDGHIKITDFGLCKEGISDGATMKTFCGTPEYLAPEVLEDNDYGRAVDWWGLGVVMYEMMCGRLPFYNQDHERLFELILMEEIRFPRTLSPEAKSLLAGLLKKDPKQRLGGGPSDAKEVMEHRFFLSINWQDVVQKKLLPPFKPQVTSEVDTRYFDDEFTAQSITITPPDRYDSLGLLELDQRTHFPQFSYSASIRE
SMILES,IC50 [1],IC50 (AKT1 WT),IC50 (AKT1 E17K),IC50 (AKT2)
"Nc1ncccc1-c1nc2ccc(-n3cccn3)nc2n1-c1ccc2c(c1)CC[C@@H]2Nc1n[nH]c2c(C=O)cccc12 [Example 148, 3-{[(1S)-5-[2-(2-aminopyridin-3-yl)-5-(pyrazol-1-yl)imidazo[4,5-b]pyridin-3-yl]-2,3-dihydro-1H-inden-1-yl]amino}-1H-indazole-7-carbaldehyde]",100 to 2000 nM,100 to 2000 nM,10 to 100 nM,100 to 2000 nM
"Cc1cc(O)c(C=O)cc1C(=O)N[C@H]1CCc2cc(-n3c(-c4cccnc4N)nc4ccc(-n5cccn5)nc43)ccc21 [Example 149, N-[(1S)-5-[2-(2-aminopyridin-3-yl)-5-(pyrazol-1-yl)imidazo[4,5-b]pyridin-3-yl]-2,3-dihydro-1H-inden-1-yl]-5-formyl-4-hydroxy-2-methylbenzamide]",100 to 2000 nM,100 to 2000 nM,10 to 100 nM,100 to 2000 nM
"Nc1ncccc1-c1nc2ccc(-c3ncco3)nc2n1-c1ccc2c(c1)CC[C@@H]2NC(=O)c1cc(C=O)c(O)c(F)c1F [Example 150, N-[(1S)-5-[2-(2-aminopyridin-3-yl)-5-(1,3-oxazol-2-yl)imidazo[4,5-b]pyridin-3-yl]-2,3-dihydro-1H-inden-1-yl]-2,3-difluoro-5-formyl-4-hydroxybenzamide]",10 to 100 nM,10 to 100 nM,10 to 100 nM,100 to 2000 nM
"Nc1ncccc1-c1nc2ccc(-c3ncco3)nc2n1-c1ccc2c(c1)CC[C@@H]2NC(=O)c1cc(C=O)c(O)cc1F [Example 151, N-[(1S)-5-[2-(2-aminopyridin-3-yl)-5-(1,3-oxazol-2-yl)imidazo[4,5-b]pyridin-3-yl]-2,3-dihydro-1H-inden-1-yl]-2-fluoro-5-formyl-4-hydroxybenzamide]",10 to 100 nM,10 to 100 nM,< 10 nM,100 to 2000 nM
"COCc1cnn(-c2ccc3nc(-c4cccnc4N)n(-c4ccc5c(c4)CC[C@@H]5NC(=O)c4cc(C=O)c(O)cc4F)c3n2)c1 [Example 152, (S)—N-(5-(2-(2-aminopyridin-3-yl)-5-(4-(methoxymethyl)-1H-pyrazol-1-yl)-3H-imidazo[4,5-b]pyridin-3-yl)-2,3-dihydro-1H-inden-1-yl)-2-fluoro-5-formyl-4-hydroxybenzamide]",100 to 2000 nM,100 to 2000 nM,10 to 100 nM,100 to 2000 nM
"Cc1cc(-n2cccn2)nc2c1nc(-c1cccnc1N)n2-c1ccc2c(c1)CC[C@@H]2NC(=O)c1cc(C=O)c(O)c(F)c1F [Example 153, (S)—N-(5-(2-(2-aminopyridin-3-yl)-7-methyl-5-(1H-pyrazol-1-yl)-3H-imidazo[4,5-b]pyridin-3-yl)-2,3-dihydro-1H-inden-1-yl)-2,3-difluoro-5-formyl-4-hydroxybenzamide]",10 to 100 nM,10 to 100 nM,10 to 100 nM,10 to 100 nM
"CN(C)S(=O)(=O)Nc1ccc(C(=O)N[C@H]2CCc3cc(-n4c(-c5cccnc5N)nc5ccc(-n6cccn6)nc54)ccc32)cc1C=O [Example 154, N-[(1S)-5-[2-(2-aminopyridin-3-yl)-5-(pyrazol-1-yl)imidazo[4,5-b]pyridin-3-yl]-2,3-dihydro-1H-inden-1-yl]-4-[(dimethylsulfamoyl)amino]-3-formylbenzamide]",10 to 100 nM,10 to 100 nM,< 10 nM,100 to 2000 nM
"C#Cc1ccc(C(=O)N[C@H]2CCc3cc(-n4c(-c5cccnc5N)nc5ccc(-n6cccn6)nc54)ccc32)cc1C=O [Example 155, N-[(1S)-5-[2-(2-aminopyridin-3-yl)-5-(pyrazol-1-yl)imidazo[4,5-b]pyridin-3-yl]-2,3-dihydro-1H-inden-1-yl]-4-ethynyl-3-formylbenzamide]",≥ 2000 nM,10 to 100 nM,10 to 100 nM,10 to 100 nM
"Nc1ncccc1-c1nc2ccc(-n3ccc(N4CCC4)n3)nc2n1-c1ccc2c(c1)CC[C@@H]2NC(=O)c1ccc(O)c(C=O)c1 [Example 156, (S)—N-(5-(2-(2-aminopyridin-3-yl)-5-(3-(azetidin-1-yl)-1H-pyrazol-1-yl)-3H-imidazo[4,5-b]pyridin-3-yl)-2,3-dihydro-1H-inden-1-yl)-3-formyl-4-hydroxybenzamide]",< 10 nM,10 to 100 nM,10 to 100 nM,10 to 100 nM
"Nc1ncccc1-c1nc2ccc(-c3ccn(C(F)F)n3)nc2n1-c1ccc2c(c1)CC[C@@H]2NC(=O)c1cc(C=O)c(O)c(F)c1F [Example 157, (S)—N-(5-(2-(2-aminopyridin-3-yl)-5-(1-(difluoromethyl)-1H-pyrazol-3-yl)-3H-imidazo[4,5-b]pyridin-3-yl)-2,3-dihydro-1H-inden-1-yl)-2,3-difluoro-5-formyl-4-hydroxybenzamide]",10 to 100 nM,10 to 100 nM,< 10 nM,10 to 100 nM
"Nc1ncccc1-c1nc2ccc(-c3ccn(C(F)F)n3)nc2n1-c1ccc2c(c1)CC[C@@H]2NC(=O)c1cc(C=O)c(O)cc1F [Example 158, N-[(1S)-5-[2-(2-aminopyridin-3-yl)-5-[1-(difluoromethyl)pyrazol-3-yl]imidazo[4,5-b]pyridin-3-yl]-2,3-dihydro-1H-inden-1-yl]-2-fluoro-5-formyl-4-hydroxybenzamide]",10 to 100 nM,10 to 100 nM,10 to 100 nM,100 to 2000 nM
"Nc1ncccc1-c1nc2ccc(-n3cccn3)nc2n1-c1ccc2c(c1)CC[C@@H]2NC(=O)c1cc(C=O)c(O)cc1O [Example 159, (S)—N-(5-(2-(2-aminopyridin-3-yl)-5-(1H-pyrazol-1-yl)-3H-imidazo[4,5-b]pyridin-3-yl)-2,3-dihydro-1H-inden-1-yl)-5-formyl-2,4-dihydroxybenzamide]",100 to 2000 nM,10 to 100 nM,10 to 100 nM,100 to 2000 nM
"Nc1ncccc1-c1nc2ccc(-n3cc4c(n3)CNC4)nc2n1-c1ccc2c(c1)CC[C@@H]2NC(=O)c1ccc(O)c(C=O)c1 [Example 160, N-[(1S)-5-[2-(2-aminopyridin-3-yl)-5-{4H,5H,6H-pyrrolo[3,4-c]pyrazol-2-yl}imidazo[4,5-b]pyridin-3-yl]-2,3-dihydro-1H-inden-1-yl]-3-formyl-4-hydroxybenzamide]",≥ 2000 nM,100 to 2000 nM,100 to 2000 nM,100 to 2000 nM
"Nc1ncccc1-c1nc2ccc(-c3ccccc3)nc2n1-c1ccc2c(c1)CC[C@@H]2NC(=O)c1ccc(B(O)O)c(C=O)c1 [Example 161, (S)-(4-((5-(2-(2-aminopyridin-3-yl)-5-phenyl-3H-imidazo[4,5-b]pyridin-3-yl)-2,3-dihydro-1H-inden-1-yl)carbamoyl)-2-formylphenyl)boronic acid]",100 to 2000 nM,10 to 100 nM,10 to 100 nM,100 to 2000 nM
"Nc1ncccc1-c1nc2ccc(-c3ccccc3)nc2n1-c1ccc2c(c1)CC[C@@H]2NC(=O)c1cc(C=O)c2[nH]cnc2c1 [Example 162, N-[(1S)-5-[2-(2-aminopyridin-3-yl)-5-phenylimidazo[4,5-b]pyridin-3-yl]-2,3-dihydro-1H-inden-1-yl]-7-formyl-1H-1,3-benzodiazole-5-carboxamide]",10 to 100 nM,< 10 nM,< 10 nM,< 10 nM
